According to US20140243401A1, “METHODS OF SCREENING COMPOUNDS THAT ARE CYTOTOXIC TO TUMOR CELLS AND METHODS OF TREATING TUMOR CELLS USING SUCH COMPOUND” (The Johns Hopkins University, priority 2010, published 2014):

What was measured:
mitochondrial FAS = assay: 14C-malonate incorporation into mitochondrial fatty acids, mitochondria isolated from rat liver; format: biochemical; settings: FIG. 3
Description: Mammalian mitochondrial FAS activity may be determined in a variety of ways. For example, [14C]malonate may be added to isolated mitochondria, fatty acids are extracted, and then radioactivity is tested. (See Zhang et al., J. Bio. Chem. 278(41): 40067-40074, 2003; Mikolajczyk, J. and Brody, S., Eur. J. Biochem. 187: 431-437, 1990). The mitochondria are purified using methods known in the art. (See Qiagen's Qproteome Mitochondria Isolation Kit; Methods in Enzymology, Vol. 10, Chapter 11, 1967). To test the inhibition of mmFAS activity, a test compound is added to the reaction mixture. Therefore, a test compound may be screened according the methods described herein as follows: (i) isolating mitochondria; (ii) incubating mitochondria with [14C]malonate with and without a test compound; and (iii) determining the quantity of lipids and/or fatty acids produced. By comparing the amount of product in the presence of the test compound to the amount in its absence, the degree of inhibition can be determined.
Mitochondria from MCF7 cells were prepared following manufacturer's protocol (Mitochondria Isolation Kit, Sigma, Saint Louis, Mo.). Rat liver mitochondria were isolated by homogenization with a tissue homogenizer in H-medium (220 mM mannitol, 70 mM sucrose, 2 mM HEPES, and 0.5 g/L of fatty acid free bovine serum albumin, pH 7.4). The homogenate was centrifuged at 1100 g for 3 min and washed twice with H-medium. The supernatants were pooled and centrifuged at 6800 g for 15 min. The pellet was then rinsed again and centrifuged at 3000 g for 3 min. The mitochondria supernatants were saved. The sediments were resuspended in H-medium and centrifuged at 3000 g for 3 min. The mitochondria supernatants were combined and centrifuged at 20,000 g for 15 min. The resulting mitochondria pellet were rinsed and centrifuged again at 20,000 g for 20 min.
Isolated mitochondria (100-200 μg) were mixed with 50 mM TES-KOH (pH 7.2), 10 mM MgCl2, 0.3 M sorbitol, 0.1% BSA, 1 mM each of ATP, ADP, NADH, NADPH, CoA, DTT and 1 μCi of [2-^14C]malonic acid (50 mCi/mmol) in a total volume of 200 μl. The reaction was performed for 30 min at room temperature. C31, Riv7d or vehicle were added at the beginning of this reaction. At the end of 30 minutes, the mitochondria pellet was separated from supernatant by centrifugation at 14000 rpm for 5 min. After washing with 500 μl of 50 mM TES-KOH (pH 7.2) and 0.3 M sorbitol, the mitochondria were incubated in 200 μl of H2O and 20 μl of 10 M KOH for 15 min at 65° C. Then the samples were added with 40 μl of 5 M H2SO4 and 20 μl of 1 mM palmitic acid (in 1 M acetic acid in isopropanol). The ^14C labeled fatty acids were twice extracted with hexane and sent to scintillation counting after drying.

MCF 7 cells = assay: clonogenic assay; format: cell-based, human; settings: MCF 7, FIG. 4(C)
Description: In this assay, the effectiveness of specific agents on cell survival and proliferation can be measured in a functional sense. After treatment, surviving cells are re-plated to determine whether the surviving cells are still capable of proliferation. Therefore, this if a more direct measure of cell survival and function.
4×10^5 cells were plated in 25 cm^2 flasks. After overnight culture, cells are treated with compounds for specified times and concentrations. After drug treatment, cells are trypsinized and equal numbers of treated and control cells are plated in triplicate in 60-mm dishes at a density of 500 cells/dish in medium without drugs. Clones are stained and counted after 7-10 days
MCF 7 cells were treated with vehicle, C31 at increasing doses, or Riv7d.

[1] = test system: HCT116 human colon cancer xenograft; assay: tumor xenograft size, HCT116; format: in vivo, Athymic Nude mice; settings: 50 mg/kg
Description: (§1) Xenograft studies were performed using various mmFAS inhibitors disclosed herein. Human cancer xenograft studies are known in the art. (See Pizer et al., Cancer Res. 56:1189-1193, 1996; Pizer et al., Cancer Res. 60: 213-218, 2000; Testa et al., Oncogene 24: 7455-7464, 2005).
(§2) In particular, C31 mouse efficacy studies were conducted in order to evaluate anti-neoplastic activity of C31 in vivo. Athymic Nude mice were implanted with HCT116 human colon, SKOV3 human ovarian or OVCAR3 human ovarian cancer cell lines and were treated when the grown tumor xenografts reached at least 150 to 200 mm^3.^1 ^1 Compounds were solubilized in TEP (80% polyethylene glycol (PEG) 400, 10% ethanol, 10% tween-80) in a volume of 50 μL.

[2] = test system: SKOV3 human ovarian cancer xenograft; assay: tumor xenograft size, SKOV3; format: in vivo, Athymic Nude mice
Description: as §1, §2

Q: Which results are given for `CCCCCCCCC1(C)SC(=O)C=C1OCC(=O)Nc1ccc(Cl)cc1` (stereo not shown) [Compound C31]?
A: IC50, inhibition of mitochondrial FAS (14C-malonate incorporation) (mitochondrial FAS; isolated mitochondria): less than 4 μg per mL; effect on 14C-malonate incorporation into mitochondrial fatty acids (mitochondrial FAS; mitochondria isolated from rat liver): dose-dependent inhibitory effect; viability in clonogenic assay (MCF 7 cells): dose-dependent decrease in viability; Average Tumor Size Endpoint (% Change) ([1]; Study 72406, HCT-116, IP b.i.d. 8 days): −59 % Change; Average Tumor Size Endpoint (% Change) ([1]; Study 101707, HCT-116, oral b.i.d. 16 days): +256 % Change; Average Tumor Size Endpoint (% Change) ([2]; Study 11007, SKOV-3, oral b.i.d. 11 days, 50 mg/kg): −78 % Change; Average Tumor Size Endpoint (% Change) ([2]; Study 52307, SKOV-3, oral b.i.d. 15 days, 50 mg/kg): −75 % Change; Average Tumor Size Endpoint (% Change) ([2]; Study 121306, SKOV-3, IP b.i.d. 12 days, 10 mg/kg): +179 % Change; Average Tumor Size Endpoint (% Change) ([2]; Study 121306, SKOV-3, IP b.i.d. 12 days, 50 mg/kg): −78 % Change; Average Tumor Size Endpoint (% Change) ([2]; Study 121306, SKOV-3, IP b.i.d. 12 days, 100 mg/kg): −78 % Change; Average Tumor Size Endpoint (% Change) ([2]; Study 3150772607, SKOV-3, IP b.i.d. 10 days, 25 mg/kg): −74 % Change; Average Tumor Size Endpoint (% Change) ([2]; Study 3150772607, SKOV-3, IP b.i.d. 10 days, 50 mg/kg): −87 % Change; Average Tumor Size Endpoint (% Change) ([2]; Study 3150772607, SKOV-3, IP b.i.d. 10 days, 150 mg/kg): −83 % Change
